Source: patent publication US11647737B2, “Genetically modified rabbit expressing an exogenous protein in milk” (APPLIED STEMCELL, INC., priority 2016, dated 2023)
Read-outs that look alike come from different tables or passages of the source.

Legend:
[1] = test system: beta-casein locus in rabbit embryos; experiment: td-Tomato knock-in efficiency at the beta-casein locus in rabbit embryos; format: cell-based; conditions: RS-1 7.5 μM; control 8.3%; P<0.05
Description: A mixture containing 100 ng/μl donor DNA, 100 ng/μl Cas9 mRNA and 6 ng/μl sgRNA were used for cytoplasm microinjection. Embryos were subsequently cultured to blastocyst stages, genomic DNA extracted, and subjected to PCR using primer sets described in FIG. 4. Embryos that are positive containing the desired band size for both primer sets LF1/LR1 and RF1/RR1 are considered putative knock-in.

[2] = test system: ROSA26 like locus (RLL) in rabbit embryos; conditions: for knock-in rate: 20 h, control 4.8%
Description: We first tested the effects of SCR7 and RS-1 on Cas9 mediated HDR at a ROSA26 like locus (RLL) in the rabbit genome (FIG. 6). Donor template DNAs were co-microinjected with Cas9 mRNA and sgRNA for RLL locus. After injection, the embryos were treated for 20 h in a serial concentration of SCR7: 0 μM (control), 20 μM, 40 μM, and 80 μM, or in RS-1 at 0 μM (control), 7.5 μM, and 15 μM.

β-casein (rbCSN2) = experiment: In vitro validation of sgRNAs in microinjected rabbit embryos (PCR and sequencing of blastocysts), β-casein; format: cell-based; conditions: 100 ng/μl Cas9 mRNA and 6 ng/μl sgRNA
Description: All animal maintenance, care and use procedures were reviewed and approved by the University Committee on the Use and Care of Animals (UCUCA) of the University of Michigan. Embryos were harvested from superovulated embryo donor female rabbits as previously described. Microinjection was performed on embryos 19-21 h post insemination using a micromanipulator under the inverted microscope equipped with a differential interference contrast (DIC) device. A mixture containing 100 ng/μl Cas9 mRNA and 6 ng/μl sgRNA were used for cytoplasmic microinjection. The injected embryos were washed and cultured in vitro for 3-4 days until they reached blastocyst stage.
Blastocyst stage embryos were lysed individually and genomic DNA extracted. To get better PCR reaction, the whole genome was replicated using a REPLI-g® Mini Kit (Qiagen, Germantown, Md.) following the manufacturer's protocol with slight modification. PCR products using primer set LF1/RR1 were purified and sequenced for detection of indel mutations proximate to the sgRNA target sequence (FIG. 4). On the chromatographic curves, peaks on peaks approximate the targeting site indicate an indel event. Mutation Surveyor (Softgenetics, State College, Pa.) was used to analyze sequencing results.
In total, we performed microinjection to 102 pronuclear stage embryos with sgRNA#3 targeting β-casein (rbCSN2) (see Table 1). […]

O=C(Nc1ccc(Br)cc1)c1ccc(Br)c(S(=O)(=O)NCc2ccccc2)c1 [RS-1]
% KI (knock-in rate) [1]: 28.9%
knock-in rate ([2]; RS-1 7.5 μM): 26.1%
knock-in rate ([2]; RS-1 15 μM): 5.4%

O=c1[nH]c(=S)[nH]c(N=Cc2ccccc2)c1N=Cc1ccccc1 [SCR7]
overall knock-in efficiency ([2]; embryos treated 20 h with SCR7 20 μM, 40 μM, 80 μM, control 7.1%): 7.7-9.4%
effect on overall knock-in efficiency ([2]; embryos treated 20 h with SCR7 20-80 μM vs control): no significant effects

sgRNA#3: sgRNA targeting rabbit β-Casein intron 1, GGATATCATGTTAGAGTGCCTGG (SEQ ID NO: 1) (listed as DNA, chemistry not given here; the letters are possibly those of the target site)
Bi-allelic mutations (%) (β-casein (rbCSN2)): 36%
blastocysts with insertions or deletions at or proximate the targeted cleavage site (#mutated, %) (β-casein (rbCSN2); 56 blastocysts sequenced): 63%
